SMILES strings stand for the structures.

In assay [1] the target is recombinant BACE1 protein (Homo sapiens (Human), UniProt P56817). Kind of assay: BACE1 Biochemical FRET based assay - Method 2. The following applies: 0.04 μg/ml BACE1, 20 μM substrate, 450 min, pH 5.0. An excerpt:
(§1) This assay is a Fluorescence Resonance Energy Transfer Assay (FRET) based assay. The substrate for this assay is an APP derived 13 amino acids peptide that contains the ‘Swedish’ Lys-Met/Asn-Leu mutation of the amyloid precursor protein (APP) beta-secretase cleavage site. This substrate also contains two fluorophores: (7-methoxycoumarin-4-yl) acetic acid (Mca) is a fluorescent donor with excitation wavelength at 320 nm and emission at 405 nm and 2,4-Dinitrophenyl (Dnp) is a proprietary quencher acceptor. […] Upon cleavage by BACE1, the fluorophore Mca is separated from the quenching group Dnp, restoring the full fluorescence yield of the donor. The increase in fluorescence is linearly related to the rate of proteolysis.
Briefly in a 384-well format recombinant BACE1 protein in a final concentration of 0.04 μg/ml is incubated for 450 minutes at room temperature with 20 μM substrate in incubation buffer (50 mM Citrate buffer pH 5.0, 0.05% PEG) in the presence of compound or DMSO. Next the amount of proteolysis is directly measured by fluorescence measurement (excitation at 320 nm and emission at 405 nm) at different incubation times (0, 30, 60, 90, 120 and 450 min). For every experiment a time curve (every 30 min between 0 min and 120 min) is used to determine the time where we find the lowest basal signal of the high control. The signal at this time (Tx) is used to subtract from the signal at 450 min. Results are expressed in RFU, as difference between T450 and Tx.

The target in assay [2] is recombinant BACE2 protein (Homo sapiens (Human), UniProt Q9Y5Z0). As to the kind of experiment: BACE2 Biochemical FRET based assay. The following applies: 0.4 μg/ml BACE2, 10 μM substrate, 450 min, pH 5.0.
Chain of recombinant BACE2 protein (Q9Y5Z0 63-518): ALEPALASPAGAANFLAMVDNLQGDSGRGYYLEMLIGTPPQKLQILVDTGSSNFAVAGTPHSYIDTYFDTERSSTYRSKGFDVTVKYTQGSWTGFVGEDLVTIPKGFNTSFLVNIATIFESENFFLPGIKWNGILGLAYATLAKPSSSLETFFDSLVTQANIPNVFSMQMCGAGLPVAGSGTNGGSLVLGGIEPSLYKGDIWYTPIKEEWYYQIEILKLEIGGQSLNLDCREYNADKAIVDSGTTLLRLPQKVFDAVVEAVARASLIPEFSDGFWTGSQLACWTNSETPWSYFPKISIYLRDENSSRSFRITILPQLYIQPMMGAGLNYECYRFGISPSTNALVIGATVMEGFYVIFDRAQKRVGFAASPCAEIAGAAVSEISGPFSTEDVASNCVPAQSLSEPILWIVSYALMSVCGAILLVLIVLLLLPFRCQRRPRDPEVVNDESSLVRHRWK
Source text: as §1, with “assay” for “assay is an APP derived 13 amino acids peptide that”, “the beta-secretase,” for “BACE1,”
Briefly in a 384-well format recombinant BACE2 protein in a final concentration of 0.4 μg/ml is incubated for 450 minutes at room temperature with 10 μM substrate in incubation buffer (50 mM Citrate buffer pH 5.0, 0.05% PEG, no DMSO) in the absence or presence of compound. Next the amount of proteolysis is directly measured by fluorescence measurement at T=0 and T=450 (excitation at 320 nm and emission at 405 nm). Results are expressed in RFU (Relative Fluorescence Units), as difference between T450 and TO.

Chain of recombinant BACE1 protein (P56817 46-501): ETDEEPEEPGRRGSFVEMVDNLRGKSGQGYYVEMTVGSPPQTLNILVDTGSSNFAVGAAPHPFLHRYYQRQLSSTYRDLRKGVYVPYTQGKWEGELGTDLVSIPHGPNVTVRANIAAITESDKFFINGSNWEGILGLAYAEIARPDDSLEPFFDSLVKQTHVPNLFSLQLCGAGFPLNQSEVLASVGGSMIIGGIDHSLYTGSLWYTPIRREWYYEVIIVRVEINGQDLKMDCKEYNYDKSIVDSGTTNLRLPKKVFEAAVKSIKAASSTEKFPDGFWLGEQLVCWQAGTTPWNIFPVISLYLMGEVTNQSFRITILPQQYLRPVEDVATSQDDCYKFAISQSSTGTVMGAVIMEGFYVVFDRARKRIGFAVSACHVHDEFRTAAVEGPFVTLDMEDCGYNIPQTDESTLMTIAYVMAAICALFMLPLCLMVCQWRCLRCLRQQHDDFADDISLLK

In the case of `C[C@@]1(c2cc(NC(=O)c3ccc(F)cn3)ccc2F)Cn2nncc2C(N)=N1` [Compound 1, N-{3-[(6R)-4-amino-6-methyl-6,7-dihydro[1,2,3]triazolo[1,5-a]pyrazin-6-yl]-4-fluorophenyl}-5-fluoropyridine-2-carboxamide], the “BACE1 Biochemical FRET based assay - Method 2 pIC50” value in assay [1] is 8.37. Further, the “BACE2 Biochemical FRET based assay pIC50” value in assay [2] is listed as 8.48.
